According to US20260262643A1, “HERBICIDAL BENZOXAZINES” (FMC CORPORATION, priority 2022, published 2026):

Tests used:
barnyardgrass [1] = test: Test C preemergence; type: in vivo, Echinochloa crusgalli; conditions: 0 to 100 scale (0 no effect, 100 complete control); for Plant response rating, Barnyardgrass: Preemergence, 500 g ai/ha, visual rating after 10 days; for Barnyardgrass plant response rating: Test C, preemergence, 125 g ai/ha
Method in brief: (§1)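 Seeds in loam–sand blend received preemergence directed soil spray of test chemicals in non-phytotoxic solvent with surfactant; postemergence treatment was applied at one- to two-leaf stage (2–10 cm). After 10 days in greenhouse, injury rated visually versus untreated controls, 0 (no effect) to 100 (complete control).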

blackgrass [2] = test: Test C preemergence; type: in vivo, Alopecurus myosuroides; conditions: 0 to 100 scale (0 no effect, 100 complete control); for Plant response rating, Blackgrass: Preemergence, 500 g ai/ha, visual rating after 10 days; for Blackgrass plant response rating: Test C, preemergence, 125 g ai/ha
Method in brief: as §1

corn [3] = test: Test C preemergence; type: in vivo, Zea mays; conditions: 0 to 100 scale (0 no effect, 100 complete control); for Corn plant response rating: preemergence
Method in brief: as §1

green foxtail [4] = test: Test C preemergence; type: in vivo, Setaria viridis; conditions: 0 to 100 scale (0 no effect, 100 complete control); for Foxtail, Green plant response rating: preemergence
Method in brief: as §1

kochia [5] = test: Test C preemergence; type: in vivo, Bassia scoparia; conditions: 0 to 100 scale (0 no effect, 100 complete control); for Kochia plant response rating: preemergence
Method in brief: as §1

oat, wild [6] = test: Test C preemergence; type: in vivo, Avena fatua; conditions: 0 to 100 scale (0 no effect, 100 complete control); for Oat, Wild plant response rating: preemergence
Method in brief: as §1

pigweed, palmer [7] = test: Test C preemergence; type: in vivo, Amaranthus palmeri; conditions: 0 to 100 scale (0 no effect, 100 complete control); for Pigweed, Palmer plant response rating: preemergence
Method in brief: as §1

ragweed [8] = test: Test C preemergence; type: in vivo, Ambrosia artemisiifolia; conditions: 0 to 100 scale (0 no effect, 100 complete control); for Ragweed plant response rating: preemergence
Method in brief: as §1

ryegrass, Italian [9] = test: Test C preemergence; type: in vivo, Lolium multiflorum; conditions: 0 to 100 scale (0 no effect, 100 complete control); for Ryegrass, Italian plant response rating: preemergence
Method in brief: as §1

soybean [10] = test: Test C preemergence; type: in vivo, Glycine max; conditions: 0 to 100 scale (0 no effect, 100 complete control); for Soybean plant response rating: preemergence
Method in brief: as §1

wheat [11] = test: Test C preemergence; type: in vivo, Triticum aestivum; conditions: 0 to 100 scale (0 no effect, 100 complete control); for Wheat plant response rating: preemergence
Method in brief: as §1

barnyardgrass [12] = test: Test C postemergence; type: in vivo, Echinochloa crusgalli; conditions: 10 days
Method in brief: as §1

blackgrass [13] = test: Test C postemergence; type: in vivo, Alopecurus myosuroides; conditions: 10 days
Method in brief: as §1

corn [14] = test: Test C postemergence; type: in vivo, Zea mays; conditions: 10 days
Method in brief: as §1

green foxtail [15] = test: Test C postemergence; type: in vivo, Setaria viridis; conditions: 10 days
Method in brief: as §1

kochia [16] = test: Test C postemergence; type: in vivo, Bassia scoparia; conditions: 10 days
Method in brief: as §1

oat, wild [17] = test: Test C postemergence; type: in vivo, Avena fatua; conditions: 10 days
Method in brief: as §1

pigweed, palmer [18] = test: Test C postemergence; type: in vivo, Amaranthus palmeri; conditions: 10 days
Method in brief: as §1

ragweed [19] = test: Test C postemergence; type: in vivo, Ambrosia artemisiifolia; conditions: 10 days
Method in brief: as §1

ryegrass, Italian [20] = test: Test C postemergence; type: in vivo, Lolium multiflorum; conditions: 10 days
Method in brief: as §1

soybean [21] = test: Test C postemergence; type: in vivo, Glycine max; conditions: 10 days
Method in brief: as §1

wheat [22] = test: Test C postemergence; type: in vivo, Triticum aestivum; conditions: 10 days
Method in brief: as §1

galium = test: Test C postemergence; type: in vivo, Galium aparine; conditions: 10 days
Method in brief: as §1

horseweed = test: Test C postemergence; type: in vivo, Erigeron canadensis; conditions: 10 days
Method in brief: as §1

barnyardgrass [23] = test: Test D flooded paddy test; type: in vivo, Echinochloa crus-galli; conditions: 250 g ai/ha, applied to paddy water, visual rating after 13 to 14 days, scale 0 to 100 (0 no effect, 100 complete control)
Method in brief: (§2)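 2-leaf plants; flood 3 cm above soil; compound dosed into paddy water; greenhouse 13–14 d; visual rating vs controls, 0–100 (100 = complete control); dash = not tested.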

ducksalad = test: Test D flooded paddy test; type: in vivo, Heteranthera limosa; conditions: 250 g ai/ha, applied to paddy water, visual rating after 13 to 14 days, scale 0 to 100 (0 no effect, 100 complete control)
Method in brief: as §2

rice = test: Test D flooded paddy test; type: in vivo, Oryza sativa; conditions: 250 g ai/ha, applied to paddy water, visual rating after 13 to 14 days, scale 0 to 100 (0 no effect, 100 complete control)
Method in brief: as §2

sedge, umbrella = test: Test D flooded paddy test; type: in vivo, Cyperus difformis; conditions: 250 g ai/ha, applied to paddy water, visual rating after 13 to 14 days, scale 0 to 100 (0 no effect, 100 complete control)
Method in brief: as §2

[24] = Preemergence, 500 g ai/ha, visual rating after 10 days
[25] = 125 g ai/ha, postemergence, 0 to 100 scale, 0 no effect, 100 complete control
[26] = Postemergence, 500 g ai/ha, visual 0 to 100 scale (0 no effect, 100 complete control)

COC[C@H]1CN(C(=O)c2cc(-n3cncn3)ccc2C)c2cccc(Cl)c2O1 [Compound 263]
Plant response rating, Barnyardgrass (barnyardgrass [1]): 90
Barnyardgrass plant response rating (barnyardgrass [1]): 70
Plant response rating, Blackgrass (blackgrass [2]): 90
Blackgrass plant response rating (blackgrass [2]): 50
Plant response rating, Corn (corn [3]; [24]): 60
Corn plant response rating (corn [3]; Test C, 125 g ai/ha): 20
Plant response rating, Foxtail, Green (green foxtail [4]; [24]): 100
Foxtail, Green plant response rating (green foxtail [4]; Test C, 125 g ai/ha): 90
Plant response rating, Kochia (kochia [5]; [24]): 70
Plant response rating, Oat, Wild (oat, wild [6]; [24]): 70
Oat, Wild plant response rating (oat, wild [6]; Test C, 125 g ai/ha): 30
Plant response rating, Pigweed, Palmer (pigweed, palmer [7]; [24]): 100
Pigweed, Palmer plant response rating (pigweed, palmer [7]; Test C, 125 g ai/ha): 70
Plant response rating, Ragweed (ragweed [8]; [24]): 30
Ragweed plant response rating (ragweed [8]; Test C, 125 g ai/ha): 0
Plant response rating, Ryegrass, Italian (ryegrass, Italian [9]; [24]): 90
Ryegrass, Italian plant response rating (ryegrass, Italian [9]; Test C, 125 g ai/ha): 80
Plant response rating, Soybean (soybean [10]; [24]): 90
Soybean plant response rating (soybean [10]; Test C, 125 g ai/ha): 80
Plant response rating, Wheat (wheat [11]; [24]): 40
Wheat plant response rating (wheat [11]; Test C, 125 g ai/ha): 20
Plant response rating, Barnyardgrass (barnyardgrass [12]; [25]): 70
Plant response rating, Barnyardgrass (barnyardgrass [12]; [26]): 90
Plant response rating, Blackgrass (blackgrass [13]; [25]): 80
Plant response rating, Blackgrass (blackgrass [13]; [26]): 90
Plant response rating, Corn (corn [14]; [25]): 30
Plant response rating, Corn (corn [14]; [26]): 90
Plant response rating, Foxtail, Green (green foxtail [15]; [25]): 80
Plant response rating, Foxtail, Green (green foxtail [15]; [26]): 90
Plant response rating, Kochia (kochia [16]; [25]): 70
Plant response rating, Kochia (kochia [16]; [26]): 70
Plant response rating, Oat, Wild (oat, wild [17]; [25]): 10
Plant response rating, Oat, Wild (oat, wild [17]; [26]): 50
Plant response rating, Pigweed, Palmer (pigweed, palmer [18]; [25]): 40
Plant response rating, Pigweed, Palmer (pigweed, palmer [18]; [26]): 80
Plant response rating, Ragweed (ragweed [19]; [25]): 40
Plant response rating, Ragweed (ragweed [19]; [26]): 90
Plant response rating, Ryegrass, Italian (ryegrass, Italian [20]; [25]): 80
Plant response rating, Ryegrass, Italian (ryegrass, Italian [20]; [26]): 90
Plant response rating, Soybean (soybean [21]; [25]): 100
Plant response rating, Soybean (soybean [21]; [26]): 100
Plant response rating, Wheat (wheat [22]; [25]): 30
Plant response rating, Wheat (wheat [22]; [26]): 80
Plant response rating, Galium (galium; [25]): 100
Plant response rating, Galium (galium; [26]): 100
Plant response rating, Horseweed (horseweed; [25]): 0
Plant response rating, Horseweed (horseweed; [26]): 20
Plant response rating, Barnyardgrass (Flood) (barnyardgrass [23]): 20
Plant response rating, Ducksalad (Flood) (ducksalad): 65
Plant response rating, Rice (Flood) (rice): 0
Plant response rating, Sedge, Umbrella (Flood) (sedge, umbrella): 85

COC[C@H]1CN(C(=O)c2cc(-n3cnc(C4CC4)n3)ccc2C)c2cccc(Cl)c2O1 [Compound 266]
Plant response rating, Barnyardgrass (barnyardgrass [1]): 80
Barnyardgrass plant response rating (barnyardgrass [1]): 50
Plant response rating, Blackgrass (blackgrass [2]): 60
Blackgrass plant response rating (blackgrass [2]): 30
Corn plant response rating (corn [3]; 500 g ai/ha): 40
Corn plant response rating (corn [3]; Test C, 125 g ai/ha): 20
Foxtail, Green plant response rating (green foxtail [4]; 500 g ai/ha): 100
Foxtail, Green plant response rating (green foxtail [4]; Test C, 125 g ai/ha): 100
Kochia plant response rating (kochia [5]; 500 g ai/ha): 90
Kochia plant response rating (kochia [5]; Test C, 125 g ai/ha): 90
Oat, Wild plant response rating (oat, wild [6]; 500 g ai/ha): 90
Oat, Wild plant response rating (oat, wild [6]; Test C, 125 g ai/ha): 40
Pigweed, Palmer plant response rating (pigweed, palmer [7]; 500 g ai/ha): 100
Pigweed, Palmer plant response rating (pigweed, palmer [7]; Test C, 125 g ai/ha): 100
Ragweed plant response rating (ragweed [8]; 500 g ai/ha): 30
Ragweed plant response rating (ragweed [8]; Test C, 125 g ai/ha): 0
Ryegrass, Italian plant response rating (ryegrass, Italian [9]; 500 g ai/ha): 90
Ryegrass, Italian plant response rating (ryegrass, Italian [9]; Test C, 125 g ai/ha): 80
Soybean plant response rating (soybean [10]; 500 g ai/ha): 100
Soybean plant response rating (soybean [10]; Test C, 125 g ai/ha): 80
Wheat plant response rating (wheat [11]; 500 g ai/ha): 70
Wheat plant response rating (wheat [11]; Test C, 125 g ai/ha): 30
Plant response rating, Barnyardgrass (barnyardgrass [12]; [25]): 70
Plant response rating, Barnyardgrass (barnyardgrass [12]; [26]): 90
Plant response rating, Blackgrass (blackgrass [13]; [25]): 50
Plant response rating, Blackgrass (blackgrass [13]; [26]): 80
Plant response rating, Corn (corn [14]; [25]): 70
Plant response rating, Corn (corn [14]; [26]): 70
Plant response rating, Foxtail, Green (green foxtail [15]; [25]): 90
Plant response rating, Foxtail, Green (green foxtail [15]; [26]): 90
Plant response rating, Kochia (kochia [16]; [25]): 80
Plant response rating, Oat, Wild (oat, wild [17]; [25]): 10
Plant response rating, Pigweed, Palmer (pigweed, palmer [18]; [25]): 90
Plant response rating, Ragweed (ragweed [19]; [25]): 70
Plant response rating, Ryegrass, Italian (ryegrass, Italian [20]; [25]): 70
Plant response rating, Soybean (soybean [21]; [25]): 100
Plant response rating, Wheat (wheat [22]; [25]): 20
Plant response rating, Galium (galium; [25]): 100
Plant response rating, Galium (galium; [26]): 100
Plant response rating, Horseweed (horseweed; [25]): 20
Plant response rating, Horseweed (horseweed; [26]): 80
Plant response rating, Barnyardgrass (Flood) (barnyardgrass [23]): 0
Plant response rating, Ducksalad (Flood) (ducksalad): 75
Plant response rating, Rice (Flood) (rice): 15
Plant response rating, Sedge, Umbrella (Flood) (sedge, umbrella): 95
